Assay [1] has as its system L. major intramacrophage amastigotes. Put plainly: Intramacrophage antileishmanial growth inhibition assay. The format is cell-based, Leishmania major. Particulars: for inhibition at 10 µM: Leishmania major, L. major strain IR‐173 (as headed) intramacrophage amastigotes, read-out: Anti‐amastigote growth inhibition (%); for host cell and parasite death in L. major anti‐amastigote screening: 2 mM of compound, L. major only. As to the method:
(§1) A modified resazurin assay[47, 48] and the two Leishmania strains were also used to assess the efficacy of synthesised compounds against intramacrophage parasites.
(§2) Human monocytic leukemia (THP‐1) cells were cultured in RPMI 1640 medium with L‐glutamine (Sigma Aldrich) supplemented with, 1 % penicillin/streptomycin solution (Lonza), 10 % fetal bovine serum (FBS; Thermofisher Scientific) and 2 g/L sodium bicarbonate (Sigma Aldrich). The cells were maintained in a humidified environment at 37 °C and 5 % CO2.
(§3) For the intramacrophage assay, a 500 000 cells/mL THP‐1 cell suspension was prepared, 25 ng/mL phorbol 12‐myristate 13‐acetate (PMA) added and the suspension seeded in 96 well plates (Nunc, Thermofisher Scientific) at 200 μL/well. Cell‐free growth medium was included as the blank. The plates were incubated for 48 hours in a humidified environment at 37 °C and 5 % CO2 to encourage the differentiation of the suspended cells to adherent macrophages.
(§4) To eliminate non‐adherent cells after the PMA treatment, the plates were carefully washed once with warm PBS. Then, a premade promastigote suspension ([…]) was added. The suspension consisted of stationary phase promastigotes in THP‐1 cell growth medium, with a multiplicity of infection (MOI) of 30 : 1. Parasite‐free medium was also added to selected THP‐1 cell‐containing wells to serve as parasite blank. The plates were thoroughly rinsed four times with warm PBS to get rid of extracellular parasites after being cultured for 24 hours to encourage macrophage infection. The cells were then treated with 160 μL of growth medium and 40 μL of either solvent (parasite blank and negative control with parasites) or 40 μL of compound solutions. For a dual‐point activity screening, 10 μM and 2 mM of compound were prepared in separate plates. Amphothericin B (10 μM) served as the standard antileishmanial drug. The plates were incubated for 72 hours in a humidified environment at 37 °C and 5 % CO2.
(§5) For the plates treated with 10 μM of compound, any serum and extracellular promastigotes that remained were carefully removed from the wells by rinsing with warm PBS. The wells were then treated with 20 μL of 0.05 % sodium dodecyl sulphate (SDS; Sigma Aldrich) in PBS for 30 sec to lyse the macrophages. Lysis was terminated with the addition of 180 μL promastigote growth medium with 10 % FBS. For the resazurin assay, 10 μL of resazurin solution (0.025 % in PBS) was added to each well and the plates were further incubated at 37 °C in for 72 hours in the dark to measure amastigote recovery to proliferative promastigotes.
Any remaining extracellular promastigotes were afterwards carefully removed from the wells by rinsing with warm PBS. The wells were then treated with 50 μL of resazurin solution (0.01 % in PBS) and the plates were further incubated at 37 °C for 4 hours in the dark to assess host cell viability.
(§6) A Thermofisher Scientific's GO Multiscan plate reader was used to measure absorbance at 570 nm and 600 nm. SkanIt 4.0 Research Edition software was used to perform the data analysis for every biological replicate. Background absorbance (600 nm) was subtracted from the 570 nm absorbance data and the mean absorbance was computed.
(§7) For the activity screening, the following formula was used to determine growth inhibition percentage: Growthinhibition%=100-[(ΔAbssample-ΔAbsblank)/(ΔAbsnegcontrol-ΔAbsblank)X100]

The test system of assay [2] is Leishmania donovani (strain 9515 (MHOM/IN/95/9515)) promastigotes. Briefly: Antipromastigote resazurin assay. The format is cell-based. Particulars: for IC50: promastigotes, maximum concentration 2 mM, ±standard deviation, read-out: L. donovani 9515 antipromastigote IC50; for inhibition at 10 µM: L. donovani strain 9515 promastigotes, read-out: Antipromastigote growth inhibition (%). As to the method:
The antipromastigote activity of synthesised compounds was evaluated using a modified method of the resazurin assay[45, 46] against two Leishmania strains.
Leishmania donovani (strain 9515 (MHOM/IN/95/9515)) and L. major (strain NIH S (MHOM/SN/74/Seidman)) promastigotes were cultured in M199 with Hank's salts and 0.68 mM L‐glutamine (Sigma Aldrich) supplemented with 0.0005 % hemin, 0.0001 % biotin, 0.1 mM adenine (Sigma Aldrich), 10 % fetal bovine serum, 50 U/mL Penicillin/Streptomycin solution, 4.2 mM sodium bicarbonate and 25 mM Hepes buffer. The promastigotes were maintained at an adjusted pH of 7.3–7.4 growth medium at 26 °C. […] Amphothericin B (10 μM) served as the standard antileishmanial drug and parasite‐free growth medium was included as the blank. The plates were incubated for 48 hours at 26 °C in humidified environment.
Following the initial incubation, 50 μL of resazurin solution (0.01 % in PBS) was added to each well and the plates underwent further incubation at 26 °C for 24 hours in the dark. A Thermofisher Scientific's GO Multiscan plate reader was used to measure absorbance at 570 nm and 600 nm. SkanIt 4.0 Research Edition software was used to perform the data analysis for every biological replicate. Background absorbance (600 nm) was subtracted from the 570 nm absorbance data and the mean absorbance was computed. The cell viability and data analysis were performed as indicated in the cytotoxicity assay.
In general terms: The colour change of resazurin is a common sign of viable cells or microbes.

The test system of assay [3] is L. donovani strain 9515 intramacrophage amastigotes. Put plainly: Intramacrophage antileishmanial growth inhibition assay. Particulars: Leishmania donovani, read-out: Anti‐amastigote growth inhibition (%). It counts as cell-based. As to the method: as §1, §2, §3, §4, §5, §6, §7
The subject of a further assay is Vero cells. Briefly: Cytotoxicity resazurin assay. The format is cell-based. Particulars: Chlorocebus sabaeus, 48 hours, ±standard deviation, maximum concentration 2 mM. As to the method: The cytotoxicity of the synthesised compounds was evaluated using the resazurin assay. The assay involves live cells converting oxidized blue resazurin dye to pink, highly fluorescent resorufin through irreversible enzymatic reduction.[44] This non‐toxic reagent is a useful instrument for determining drug toxicity and cell growth.
Dulbecco's modified Eagle's medium (DMEM) with high glucose (Separations) supplemented with 1 % L‐glutamine, non‐essential amino acids, and penicillin‐streptomycin (Sigma Aldrich), and 10 % fetal bovine serum (Thermofisher Scientific) was used to cultivate Vero cells. The cells were kept at 37 °C and 5 % CO2 in a humidified environment. For the assay, 96 well plates were prepared by pipetting 100 μL of cell suspension (60 000 cells/mL) per well and incubating the plates for 24 hours. The cells were then treated with seven two‐fold concentration dilutions of: (1) 1 μM emetine dihydrochloride (Sigma Aldrich) solution (positive control); (2) 2 mM experimental compound solutions. Cell‐free growth medium was included as a blank. The treated plates were incubated for 48 hours.
To initiate the resazurin assay, 50 μL of sterile‐filtered resazurin sodium salt (Sigma Aldrich) solution (0.01 % in phosphate‐buffered saline (PBS)) was added to the prepared plates and then incubated for 2 hours. A Thermofisher Scientific's GO Multiscan plate reader was used to measure the absorbance at 570 and 600 nm. SkanIt 4.0 Research Edition software was used to perform the data analysis for every biological replicate. After subtracting background absorbance (600 nm) from the 570 nm absorbance data, the mean absorbance was computed, and the percentage of viable cells was estimated using the formula below: Cellviability%=(ΔAbssample-ΔAbsblank)/(ΔAbsnegcontrol-ΔAbsblank)X100
GraphPad Prism 5 was used to calculate the IC50 and Z‐score for each compound's biological replicate. The mean IC50 of the biological replicates and standard deviation (SD) was calculated to determine the final IC50 of each compound.

The subject of assay [4] is L. major (strain NIH S (MHOM/SN/74/Seidman)) promastigotes. Put plainly: Antipromastigote resazurin assay. The format is cell-based, Leishmania major. Particulars: for inhibition at 10 µM: L. major strain IR‐173 (as headed) promastigotes, read-out: Antipromastigote growth inhibition (%); for IC50: promastigotes, maximum concentration 2 mM, ±standard deviation.

SMILES strings stand for the structures. “Also recorded” adds a separate entry of the source. Where two headings read alike, the source gives them in different places.

As usually defined, the inhibition is how much of the control response was suppressed. As usually defined, the IC50 is the point on the concentration scale where inhibition reaches its midpoint. On to `C[C@@H]1[C@H](O)[C@@H](C)/C=C/C=C/C=C/C=C/C=C/C=C/C=C/[C@H](O[C@@H]2O[C@H](C)[C@@H](O)[C@H](N)[C@@H]2O)C[C@@H]2O[C@](O)(C[C@@H](O)C[C@@H](O)[C@H](O)CC[C@@H](O)C[C@@H](O)CC(=O)O[C@H]1C)C[C@H](O)[C@H]2C(=O)O` [AmB, Amphotericin B, reference compound], for which the inhibition at 10 µM in assay [1], in assay [2] (Leishmania donovani), in assay [3] and in assay [4] (Leishmania major) was 100% throughout. The results for the IC50 (in assay [2] (Leishmania donovani); in the assay with Vero cells) were 0.02 µM and 57.8 ± 3.22 µM, respectively.

For the compound `COCCN1C=Nc2ccccc2S1(=O)=O` [Compound 3, 2‐(2‐Methoxyethyl)‐2H‐benzo[e][1,2,4]thiadiazine‐1,1‐dioxide], the inhibition at 10 µM in assay [1] came to 0%; in assay [2] (Leishmania donovani) it was 2%; in assay [3], 0%; in assay [4] (Leishmania major), 0%. The IC50 in assay [2] (Leishmania donovani) came out at 482 ± 7.57 µM; in the assay with Vero cells, 502 ± 152 µM; in assay [4] (Leishmania major), 701 ± 40.8 µM.

Take `COCCOCCN1C=Nc2ccccc2S1(=O)=O` [Compound 4, 2‐[2‐(2‐Methoxyethoxy)ethyl]‐2H‐benzo[e][1,2,4]thiadiazine‐1,1‐dioxide]: the inhibition at 10 µM in assay [1], in assay [2] (Leishmania donovani), in assay [3] and in assay [4] (Leishmania major) was 0% each time. Also, the IC50 amounted to 701.6 ± 4.17 µM in assay [2] (Leishmania donovani), 988 ± 10.6 µM with Vero cells and 919 ± 22.3 µM in assay [4] (Leishmania major).

For `COCCOCCOCCN1C=Nc2ccccc2S1(=O)=O` [Compound 5, 2‐{2‐[2‐(2‐Methoxyethoxy)ethoxy]ethyl}‐2H‐benzo[e][1,2,4]thiadiazine‐1,1‐dioxide], the “host cell and parasite death in L. major anti‐amastigote screening” value (shortened to “host cell and parasite death”) in assay [1] is “both host cell and parasite death”. For the same compound, the inhibition at 10 µM in assay [1] came out at 0%; in assay [2] (Leishmania donovani), 5%; in assay [3], 0%; in assay [4] (Leishmania major), 0%. The “SI1: Selectivity index=IC50 Vero/L. donovani 9515 antipromastigote IC50” value in assay [2] is on record as 1.20. Besides, the IC50 in assay [2] (Leishmania donovani) came out at 830 ± 10.5 µM; in the assay on Vero cells it was 999 ± 16.8 µM. For the same compound, in assay [4], the “SI2: Selectivity index=IC50 Vero/L. major antipromastigote IC50” value was determined as 0.89.

`CCOCCN1C=Nc2ccccc2S1(=O)=O` [Compound 6, 2‐(2‐Ethoxyethyl)‐2H‐benzo[e][1,2,4]thiadiazine‐1,1‐dioxide]: the inhibition at 10 µM in assay [1] is 0%; in assay [2] (Leishmania donovani), 2%; in assay [3], 0%; in assay [4] (Leishmania major), 0%. Moreover, the values for the IC50 (in assay [2] (Leishmania donovani); with Vero cells; in assay [4] (Leishmania major)) were 333 ± 45.1 µM, 470 ± 225 µM and 586 ± 47 µM, respectively.

On to `CCOCCOCCN1C=Nc2ccccc2S1(=O)=O` [Compound 7, 2‐[2‐(2‐Ethoxyethoxy)ethyl]‐2H‐benzo[e][1,2,4]thiadiazine‐1,1‐dioxide], for which the “host cell and parasite death” value in assay [1] is “both host cell and parasite death; also recorded: killed both parasite and host cell”. Moreover, the inhibition at 10 µM in assay [1], in assay [2] (Leishmania donovani), in assay [3] and in assay [4] (Leishmania major) was 0% in each case. In addition, the “SI1: Selectivity index=IC50 Vero/L. donovani 9515 antipromastigote IC50” value in assay [2] was 1.71. The IC50 stood at 426 ± 34.7 µM in assay [2] (Leishmania donovani), 727 ± 61.7 µM in the assay with Vero cells and 491 ± 28.6 µM in assay [4] (Leishmania major). The “SI2: Selectivity index=IC50 Vero/L. major antipromastigote IC50” value in assay [4] worked out at 1.48.

`CCOCCOCCOCCN1C=Nc2ccccc2S1(=O)=O` [Compound 8, 2‐{2‐[2‐(2‐Ethoxyethoxy)ethoxy]ethyl}‐2H‐benzo[e][1,2,4]thiadiazine‐1,1‐dioxide]: the inhibition at 10 µM in assay [1] was 0%; in assay [2] (Leishmania donovani) it was 3%; in assay [3], 0%; in assay [4] (Leishmania major), 0%. Moreover, the concentration for half-maximal inhibition (IC50) in assay [2] (Leishmania donovani) worked out at 809 ± 20.2 µM; in the assay with Vero cells it was 922 ± 93.9 µM; in assay [4] (Leishmania major) it was 909 ± 124 µM.

Take `O=S1(=O)c2ccccc2N=CN1CCOc1ccccc1` [Compound 9, 2‐(2‐Phenoxyethyl)‐2H‐benzo[e][1,2,4]thiadiazine‐1,1‐dioxide]: the “host cell and parasite death” value in assay [1] was “both host cell and parasite death; also recorded: killed both parasite and host cell”. For the same compound, the inhibition at 10 µM in assay [1] amounted to 0%; in assay [2] (Leishmania donovani), 7%; in assay [3], 0%; in assay [4] (Leishmania major), 58%. In addition, the “SI1: Selectivity index=IC50 Vero/L. donovani 9515 antipromastigote IC50” value in assay [2] stood at 6.36. The IC50 came out at 153 µM in assay [2] (Leishmania donovani); 153 ± 7.92 µM in assay [2]; 975.3 ± 3.68 µM with Vero cells; 103 µM in assay [4] (Leishmania major); 104 ± 4.53 µM in assay [4]. The “SI2: Selectivity index=IC50 Vero/L. major antipromastigote IC50” value in assay [4] was found to be 9.41.

On to `CC[C@H]1CN2CCc3cc(OC)c(OC)cc3[C@@H]2C[C@@H]1C[C@H]1NCCc2cc(OC)c(OC)cc21` [Em, emetine, reference compound], for which the IC50 with Vero cells was 0.08 ± 0.01 µM.
